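Cultured in 96-well plates, cells were exposed to test compound for 48 hours across five concentrations. GI50 = concentration required for 50% inhibition of growth.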 Active and inactive are the calls of the source. Rule as the data show it: active = GI50 up to about 1.1 µM and inactive = higher.
What was measured:
Experiment in all cases: NCI-60 cell line screen, 48 h
KM-20L2 = tested on: KM-20L2
786-0 = tested on: 786-0
NCI-H522 = tested on: NCI-H522
NCI-H23 = tested on: NCI-H23
KM12 = tested on: KM12
K562 = tested on: K562
HOP-92 = tested on: HOP-92
SNB-19 = tested on: SNB-19
SNB-75 = tested on: SNB-75
SF-268 = tested on: SF-268
SF-539 = tested on: SF-539
SN12C = tested on: SN12C
A549 = tested on: A549
DLD-1 = tested on: DLD-1
HOP-18 = tested on: HOP-18
RPMI-8226 = tested on: RPMI-8226
UO-31 = tested on: UO-31
U-251 = tested on: U-251
UACC-62 = tested on: UACC-62
SR = tested on: SR
SF-295 = tested on: SF-295
UACC-257 = tested on: UACC-257
XF498 = tested on: XF498
M14 = tested on: M14
HCC 2998 = tested on: HCC 2998
M19-MEL = tested on: M19-MEL
OVCAR-3 = tested on: OVCAR-3
DMS-114 = tested on: DMS-114
OVCAR-5 = tested on: OVCAR-5
CAKI-1 = tested on: CAKI-1
SW-620 = tested on: SW-620
DMS-273 = tested on: DMS-273
A498 = tested on: A498
SK-MEL-5 = tested on: SK-MEL-5
EKVX = tested on: EKVX
LXFL 529 = tested on: LXFL 529
HL-60 = tested on: HL-60
SK-MEL-28 = tested on: SK-MEL-28
MOLT-4 = tested on: MOLT-4
HT-29 = tested on: HT-29
HCT-116 = tested on: HCT-116
ACHN = tested on: ACHN
IGROV-1 = tested on: IGROV-1
HCT-15 = tested on: HCT-15
OVCAR-8 = tested on: OVCAR-8
SK-OV-3 = tested on: SK-OV-3
HOP-62 = tested on: HOP-62
OVCAR-4 = tested on: OVCAR-4
CCRF-CEM = tested on: CCRF-CEM
SNB-78 = tested on: SNB-78
NCI-H460 = tested on: NCI-H460
TK-10 = tested on: TK-10
LOX IMVI = tested on: LOX IMVI
NCI/ADR-RES = tested on: NCI/ADR-RES
NCI-H226 = tested on: NCI-H226
SK-MEL-2 = tested on: SK-MEL-2
COLO 205 = tested on: COLO 205
MCF7 = tested on: MCF7
RXF 393 = tested on: RXF 393
Malme-3M = tested on: Malme-3M

With `CC1(C)C=C(N2CCN(C3=CC(C)(C)NC(C)(C)C3)CC2)CC(C)(C)N1` the GI50 (KM-20L2) was > 100 µM (inactive), the GI50 (786-0) was > 100 µM (inactive) and the GI50 (NCI-H522) was > 100 µM (inactive). The GI50 (NCI-H23) was > 100 µM (inactive), the GI50 (KM12) was > 100 µM (inactive) and the GI50 (K562) was > 100 µM (inactive). For the same compound, the GI50 (HOP-92) was > 100 µM (inactive), the GI50 (SNB-19) was > 100 µM (inactive) and the GI50 (SNB-75) was > 100 µM (inactive). The GI50 (SF-268) was > 100 µM (inactive), the GI50 (SF-539) was > 100 µM (inactive) and the GI50 (SN12C) was > 100 µM (inactive). The GI50 (A549) was > 100 µM (inactive), the GI50 (DLD-1) was > 100 µM (inactive) and the GI50 (HOP-18) was > 100 µM (inactive). The GI50 (RPMI-8226) was > 100 µM (inactive), the GI50 (UO-31) was > 100 µM (inactive) and the GI50 (U-251) was > 100 µM (inactive). The GI50 (UACC-62) was > 100 µM (inactive), the GI50 (SR) was > 100 µM (inactive) and the GI50 (SF-295) was > 100 µM (inactive). The GI50 (UACC-257) was > 100 µM (inactive), the GI50 (XF498) was > 100 µM (inactive) and the GI50 (M14) was > 100 µM (inactive). For the same compound, the GI50 (HCC 2998) was > 100 µM (inactive), the GI50 (M19-MEL) was > 100 µM (inactive) and the GI50 (OVCAR-3) was > 100 µM (inactive). The GI50 (DMS-114) was > 100 µM (inactive), the GI50 (OVCAR-5) was > 100 µM (inactive) and the GI50 (CAKI-1) was > 100 µM (inactive). For the same compound, the GI50 (SW-620) was > 100 µM (inactive), the GI50 (DMS-273) was > 100 µM (inactive) and the GI50 (A498) was > 100 µM (inactive). For the same compound, the GI50 (SK-MEL-5) was > 100 µM (inactive), the GI50 (EKVX) was > 100 µM (inactive) and the GI50 (LXFL 529) was > 100 µM (inactive). The GI50 (HL-60) was > 100 µM (inactive), the GI50 (SK-MEL-28) was > 100 µM (inactive) and the GI50 (MOLT-4) was > 100 µM (inactive). The GI50 (HT-29) was > 100 µM (inactive), the GI50 (HCT-116) was > 100 µM (inactive) and the GI50 (ACHN) was > 100 µM (inactive). The GI50 (IGROV-1) was > 100 µM (inactive), the GI50 (HCT-15) was greater than 100 µM and the GI50 (OVCAR-8) was > 100 µM (inactive). For the same compound, the GI50 (SK-OV-3) was > 100 µM (inactive), the GI50 (HOP-62) was > 100 µM (inactive) and the GI50 (OVCAR-4) was > 100 µM (inactive). The GI50 (CCRF-CEM) was > 100 µM (inactive), the GI50 (SNB-78) was > 100 µM (inactive) and the GI50 (NCI-H460) was > 100 µM (inactive). For the same compound, the GI50 (TK-10) was > 100 µM (inactive) and the GI50 (LOX IMVI) was > 100 µM (inactive).

`O=S1(=O)N2CN3CN(C2)CN1C3` was tested, and the GI50 (KM-20L2) was > 91.8 µM (inactive), the GI50 (786-0) was 30.5 µM (inactive) and the GI50 (NCI-H522) was 177 µM (inactive). For the same compound, the GI50 (NCI-H23) was 20.5 µM (inactive), the GI50 (KM12) was 93.8 µM (inactive) and the GI50 (K562) was > 31.6 µM (inactive). The GI50 (HOP-92) was > 100 µM (inactive), the GI50 (SNB-19) was 238 µM (inactive) and the GI50 (SNB-75) was 28.8 µM (inactive). For the same compound, the GI50 (SF-268) was > 58.3 µM (inactive), the GI50 (SF-539) was > 100 µM (inactive) and the GI50 (SN12C) was 34.9 µM (inactive). For the same compound, the GI50 (A549) was 280 µM (inactive), the GI50 (NCI/ADR-RES) was > 100 µM (inactive) and the GI50 (DLD-1) was 33.4 µM (inactive). For the same compound, the GI50 (NCI-H226) was 28.1 µM (inactive), the GI50 (HOP-18) was > 50.1 µM (inactive) and the GI50 (RPMI-8226) was 28.7 µM (inactive). For the same compound, the GI50 (SK-MEL-2) was 141 µM (inactive), the GI50 (UO-31) was 182 µM (inactive) and the GI50 (U-251) was 331 µM (inactive). For the same compound, the GI50 (UACC-62) was 22.6 µM (inactive), the GI50 (SF-295) was 23.8 µM (inactive) and the GI50 (UACC-257) was 30.1 µM (inactive). The GI50 (XF498) was > 100 µM (inactive), the GI50 (M14) was 36.2 µM (inactive) and the GI50 (COLO 205) was 25.4 µM (inactive). For the same compound, the GI50 (HCC 2998) was 255 µM (inactive), the GI50 (M19-MEL) was 62.1 µM (inactive) and the GI50 (OVCAR-3) was > 10 µM (inactive). The GI50 (MCF7) was 56.8 µM (inactive), the GI50 (DMS-114) was 23.7 µM (inactive) and the GI50 (OVCAR-5) was 208 µM (inactive). The GI50 (CAKI-1) was 205 µM (inactive), the GI50 (SW-620) was 23.7 µM (inactive) and the GI50 (DMS-273) was 27 µM (inactive). For the same compound, the GI50 (A498) was 223 µM (inactive), the GI50 (RXF 393) was 56.9 µM (inactive) and the GI50 (SK-MEL-5) was 32.4 µM (inactive). For the same compound, the GI50 (EKVX) was 370 µM (inactive), the GI50 (LXFL 529) was 18.2 µM (inactive) and the GI50 (HL-60) was 23.1 µM (inactive). For the same compound, the GI50 (SK-MEL-28) was > 83.6 µM (inactive), the GI50 (MOLT-4) was 105 µM (inactive) and the GI50 (HT-29) was 26 µM (inactive). The GI50 (HCT-116) was 21.6 µM (inactive), the GI50 (ACHN) was 108 µM (inactive) and the GI50 (IGROV-1) was 278 µM (inactive). For the same compound, the GI50 (HCT-15) was 23.2 µM, the GI50 (Malme-3M) was 129 µM (inactive) and the GI50 (OVCAR-8) was > 86.5 µM (inactive). The GI50 (SK-OV-3) was 230 µM (inactive), the GI50 (HOP-62) was 234 µM (inactive) and the GI50 (OVCAR-4) was 28.7 µM (inactive). The GI50 (CCRF-CEM) was > 31.6 µM (inactive), the GI50 (SNB-78) was 28.1 µM (inactive) and the GI50 (NCI-H460) was 51.5 µM (inactive). The GI50 (TK-10) was 286 µM (inactive) and the GI50 (LOX IMVI) was 36.8 µM (inactive).

With `CC(CC[C@@H](C)C1CCC2[C@@H]3CC(O)C4CC(O)[C@@H](O)C[C@]4(C)C3CC[C@@]21C)C(C)(C)C` (some centres undefined) the GI50 (KM-20L2) was > 100 µM (inactive), the GI50 (786-0) was > 100 µM (inactive) and the GI50 (NCI-H23) was > 100 µM (inactive). For the same compound, the GI50 (KM12) was > 100 µM (inactive), the GI50 (K562) was > 100 µM (inactive) and the GI50 (HOP-92) was > 100 µM (inactive). The GI50 (SNB-19) was > 100 µM (inactive), the GI50 (SNB-75) was > 100 µM (inactive) and the GI50 (SF-268) was > 100 µM (inactive). The GI50 (SF-539) was > 100 µM (inactive), the GI50 (SN12C) was > 100 µM (inactive) and the GI50 (A549) was > 100 µM (inactive). The GI50 (DLD-1) was > 100 µM (inactive), the GI50 (NCI-H226) was > 100 µM (inactive) and the GI50 (HOP-18) was > 100 µM (inactive). The GI50 (RPMI-8226) was > 100 µM (inactive), the GI50 (SK-MEL-2) was > 100 µM (inactive) and the GI50 (UO-31) was > 100 µM (inactive). The GI50 (U-251) was > 100 µM (inactive), the GI50 (UACC-62) was > 100 µM (inactive) and the GI50 (SR) was > 100 µM (inactive). For the same compound, the GI50 (SF-295) was > 100 µM (inactive), the GI50 (UACC-257) was > 100 µM (inactive) and the GI50 (XF498) was > 100 µM (inactive). The GI50 (M14) was > 100 µM (inactive), the GI50 (COLO 205) was > 100 µM (inactive) and the GI50 (HCC 2998) was > 100 µM (inactive). For the same compound, the GI50 (M19-MEL) was > 100 µM (inactive), the GI50 (OVCAR-3) was > 100 µM (inactive) and the GI50 (DMS-114) was > 100 µM (inactive). The GI50 (OVCAR-5) was > 100 µM (inactive), the GI50 (CAKI-1) was > 100 µM (inactive) and the GI50 (SW-620) was > 100 µM (inactive). For the same compound, the GI50 (DMS-273) was > 100 µM (inactive), the GI50 (A498) was > 100 µM (inactive) and the GI50 (RXF 393) was > 100 µM (inactive). The GI50 (SK-MEL-5) was > 100 µM (inactive), the GI50 (EKVX) was > 100 µM (inactive) and the GI50 (LXFL 529) was > 100 µM (inactive). For the same compound, the GI50 (HL-60) was > 100 µM (inactive), the GI50 (SK-MEL-28) was > 100 µM (inactive) and the GI50 (MOLT-4) was > 100 µM (inactive). For the same compound, the GI50 (HT-29) was > 100 µM (inactive), the GI50 (HCT-116) was > 100 µM (inactive) and the GI50 (ACHN) was > 100 µM (inactive). The GI50 (IGROV-1) was > 100 µM (inactive), the GI50 (HCT-15) was greater than 100 µM and the GI50 (Malme-3M) was > 100 µM (inactive). For the same compound, the GI50 (OVCAR-8) was > 100 µM (inactive), the GI50 (SK-OV-3) was > 100 µM (inactive) and the GI50 (HOP-62) was > 100 µM (inactive). The GI50 (OVCAR-4) was > 100 µM (inactive), the GI50 (CCRF-CEM) was > 100 µM (inactive) and the GI50 (SNB-78) was > 100 µM (inactive). The GI50 (NCI-H460) was > 100 µM (inactive), the GI50 (TK-10) was > 100 µM (inactive) and the GI50 (LOX IMVI) was > 100 µM (inactive).

— ChEMBL document CHEMBL1201862, “PubChem BioAssay data set” (2004)
